Test results: ChEMBL document CHEMBL4610073, “Potential Antidiabetic Fumiquinazoline Alkaloids from the Marine-Derived Fungus Scedosporium apiospermum F41-1” (J Nat Prod, 2020)
Activity calls are given as the source filed them. The rule behind the calls is not given here.

What was measured:
3T3-L1 [1] = test: Antidiabetic activity in mouse 3T3L1 preadipocytes assessed as increase in triglycerides level at 5 uM after 6 days; format: functional, cell-based
3T3-L1 [2] = test: Antidiabetic activity in mouse 3T3L1 preadipocytes assessed as increase in triglycerides level at 5 uM after 3 to 6 days by ORO staining based microscopic method; format: functional, cell-based
3T3-L1 [3] = test: Antidiabetic activity in mouse 3T3L1 preadipocytes assessed as increase in triglycerides level at 5 uM up to 3 days by ORO staining based microscopic method; format: functional, cell-based
3T3-L1 [4] = test: Cytotoxicity against mouse 3T3L1 preadipocytes assessed as reduction in cell viability at 50 uM; format: cell-based; conditions: 3t3-l1, 50 µM
3T3-L1 [5] = test: Antidiabetic activity in mouse 3T3L1 preadipocytes assessed as increase in triglycerides level at 1 to 5 uM after 6 days by ORO staining based microscopic method; format: functional, cell-based
3T3-L1 [6] = test: Antidiabetic activity in mouse 3T3L1 preadipocytes assessed as increase in triglycerides level after 6 days; format: functional, cell-based; conditions: 3T3-L1, 144 h
[7] = biological target: T1, Peroxisome proliferator-activated receptor gamma (Mus musculus) (UniProt P37238); test: Agonist activity at PPARgamma in mouse 3T3L1 preadipocytes assessed as increase in AMPKalpha mRNA expression at 5 uM after 6 days by RT-PCR analysis; format: cell-based; conditions: 3T3-L1
T1 sequence (whole entry): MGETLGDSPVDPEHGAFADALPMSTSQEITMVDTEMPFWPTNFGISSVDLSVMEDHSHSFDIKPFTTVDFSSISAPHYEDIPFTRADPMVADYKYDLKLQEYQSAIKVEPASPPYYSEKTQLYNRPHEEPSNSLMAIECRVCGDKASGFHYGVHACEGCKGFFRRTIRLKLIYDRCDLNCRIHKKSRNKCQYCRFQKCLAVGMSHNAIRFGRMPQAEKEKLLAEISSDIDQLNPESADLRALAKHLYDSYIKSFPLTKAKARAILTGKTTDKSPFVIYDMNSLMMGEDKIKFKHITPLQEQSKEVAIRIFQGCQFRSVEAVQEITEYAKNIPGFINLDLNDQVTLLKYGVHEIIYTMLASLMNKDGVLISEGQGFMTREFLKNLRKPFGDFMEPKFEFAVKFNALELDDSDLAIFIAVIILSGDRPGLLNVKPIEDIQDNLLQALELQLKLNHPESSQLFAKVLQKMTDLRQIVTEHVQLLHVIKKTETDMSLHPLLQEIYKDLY

[8] = biological target: T1, Peroxisome proliferator-activated receptor gamma (Mus musculus); test: Agonist activity at PPARgamma in mouse 3T3L1 preadipocytes assessed as increase in C/EBPalpha mRNA expression at 5 uM after 6 days by RT-PCR analysis; format: cell-based; conditions: 3T3-L1
[9] = biological target: T1, Peroxisome proliferator-activated receptor gamma (Mus musculus); test: Agonist activity at PPARgamma in mouse 3T3L1 preadipocytes assessed as increase in FABP4 mRNA expression at 5 uM after 6 days by RT-PCR analysis; format: cell-based; conditions: 3T3-L1
3T3-L1 [10] = test: Antidiabetic activity in mouse 3T3L1 preadipocytes assessed as increase in triglycerides level at 5 uM after 6 days in presence of GW9662; format: functional, cell-based
[11] = biological target: T1, Peroxisome proliferator-activated receptor gamma (Mus musculus); test: Agonist activity at PPARgamma in mouse 3T3L1 preadipocytes assessed as increase in SCD-1 mRNA expression at 5 uM after 6 days by RT-PCR analysis; format: cell-based; conditions: 3T3-L1
[12] = biological target: T1, Peroxisome proliferator-activated receptor gamma (Mus musculus); test: Agonist activity at PPARgamma in mouse 3T3L1 preadipocytes assessed as increase in LXRalpha mRNA expression at 5 uM after 6 days by RT-PCR analysis; format: cell-based; conditions: 3T3-L1
3T3-L1 [13] = test: Antidiabetic activity in mouse 3T3L1 preadipocytes assessed as increase in triglycerides level at 5 uM after 6 days in presence of T0070907; format: functional, cell-based
[14] = biological target: T1, Peroxisome proliferator-activated receptor gamma (Mus musculus); test: Agonist activity at PPARgamma in mouse 3T3L1 preadipocytes assessed as increase in PPARgamma mRNA expression at 5 uM after 6 days by RT-PCR analysis; format: cell-based; conditions: 3T3-L1

| Activity [7] | Activity [8] | Activity [9] | Activity [11] | Activity [12] | Activity [14] | Structure (SMILES) | Activity (3T3-L1 [1]) | Activity (3T3-L1 [2]) | Activity (3T3-L1 [3]) | Activity (3T3-L1 [4]) | Activity (3T3-L1 [5]) | EC50 (3T3-L1 [6]) | Activity (3T3-L1 [10]) | Activity (3T3-L1 [13]) |
| --- | --- | --- | --- | --- | --- | --- | --- | --- | --- | --- | --- | --- | --- | --- |
| – | – | – | – | – | – | C/C=C1\NC(=O)[C@@H](Cc2c[nH]c3ccccc23)n2c1nc1ccccc1c2=O | Active | Active | Active | Non-Toxic | Active | 1030 nM | – | – |
| – | – | – | – | – | – | CN(CCOc1ccc(CC2SC(=O)NC2=O)cc1)c1ccccn1 (stereo unspecified) [ROSIGLITAZONE] | – | – | – | – | – | 120 nM | – | – |
| – | – | – | – | – | – | CC(C)=C1NC(=O)[C@@H](C[C@]2(O)c3ccccc3N3C(=O)C(C)(C)N[C@H]32)n2c1nc1ccccc1c2=O | Active | Active | Active | Non-Toxic | Active | 2340 nM | – | – |
| Active | Active | Active | Active | Active | Active | CC(C)=C1NC(=O)[C@@H](C[C@]2(O)c3ccccc3N3C(=O)[C@H](C(C)C)N[C@H]32)n2c1nc1ccccc1c2=O | Active | Active | Active | Non-Toxic | Active | 360 nM | inactive | inactive |
| Active | Active | Active | Active | Active | Active | CC[C@@H]1N[C@@H]2N(C1=O)c1ccccc1[C@@]2(O)C[C@@H]1C(=O)NC(=C(C)C)c2nc3ccccc3c(=O)n21 | Active | Active | Active | Non-Toxic | Active | 270 nM | inactive | inactive |
